Assay results published in patent US6632975B1, “Method for the production of in vivo model of hepatocellular carcinoma without lung metastasis” (Kabushiki Kaisha Daiyu-Kai Institute of Medical Science, priority 2000, dated 2003).

Test system: F344 Fisher rats
Test: Production of in vivo lung metastatic hepatoma model: incidences of hepatocellular carcinoma and lung metastasis, survival (Example 1)
Parameters: species or system rat
Method: Animals used in this example were F344 Fisher rats (purchased from Charles River Japan Inc.).
Diethylnitrosoamine (hereinafter, referred to as “DEN”) and nitrosomorpholine (hereinafter, referred to as “NMOR”) were purchased from Tokyo Kasei Kogyo Co., Ltd.
DEN was diluted with physiological saline, and intraperitoneally injected in animals at a dose of 100 mg/kg body weight, or it was diluted with tap water to make the concentration of 50 ppm and administered via drinking water feeding bottle. NMOR was diluted with tap water to make the concentration of 120 ppm, and administered via a drinking water feeding bottle.
Animals were divided into four groups and treated as follows: Animals of the first group were given 50 ppm of DEN in drinking water for 16 weeks, and were sacrificed and subjected to autopsy in week 16. Animals of the second group were given 100 mg/kg body weight of DEN via intraperitoneal injection at the start of the experiment, and were sacrificed and subjected to autopsy in week 22. Animals of the third group were given 120 ppm of NMOR in drinking water for 22 weeks, and were sacrificed and subjected to autopsy in week 22. Animals of the fourth group were given 100 mg/kg body weight of DEN via intraperitoneal injection at the start of the experiment were given NMOR from the start to week 22 of the experiment, and were sacrificed and subjected to autopsy in week 22.
Liver and lung as well as other tissues were collected, fixed in formalin and stained with hematoxylin-eosin by the standard method to prepare specimens. Specimens were microscopically examined for presence of hepatocellular carcinoma in the liver and metastatic lesion in the lung to determine incidences of hepatocellular carcinoma and lung metastasis, which are shown in FIG. 1.

[1] = DEN 50 ppm in drinking water for 16 weeks, autopsy week 16
[2] = NMOR 120 ppm in drinking water for 22 weeks, autopsy week 22

| Structure (SMILES) | incidence of hepatoma [1] | lung metastasis [1] | incidence of hepatoma [2] | lung metastasis (animals affected) [2] |
| --- | --- | --- | --- | --- |
| CCN(CC)N=O [DEN, Diethylnitrosoamine] | 100% | no lung metastasis was observed | – | – |
| O=NN1CCOCC1 [NMOR, nitrosomorpholine] | – | – | 100% | only one animal |
